Experimental data: the NIST ThermoML archive (doi:10.1021/acs.jced.5b00152)
Numbers after ± are expanded uncertainties.

Settings: Liquid; for viscosity: Capillary tube (Ostwald / Ubbelohde) method; for mass density: Vibrating tube method

CCO [ethanol]
Settings | mass density [kg/m3] | viscosity [mPa·s]
298.15 K, 1022 kPa | 785.87 ± 0.56 | 1.086 ± 0.0097
298.15 K, 3922 kPa | 788.69 ± 0.57 | 1.112 ± 0.01
298.15 K, 8793 kPa | 792.53 ± 0.58 | 1.148 ± 0.01
298.15 K, 12491 kPa | 795.7 ± 0.59 | 1.175 ± 0.01
298.15 K, 17711 kPa | 799.91 ± 0.6 | 1.213 ± 0.011
298.15 K, 21982 kPa | 802.87 ± 0.62 | 1.244 ± 0.011
298.15 K, 24097 kPa | 804.5 ± 0.62 | 1.26 ± 0.011
298.15 K, 26940 kPa | 806.36 ± 0.63 | 1.28 ± 0.011
298.15 K, 29139 kPa | 807.89 ± 0.64 | 1.296 ± 0.011
323.15 K, 3237 kPa | 766.361 ± 0.55 | 0.711 ± 0.0065
323.15 K, 9248 kPa | 772.358 ± 0.57 | 0.7435 ± 0.0068
323.15 K, 12839 kPa | 775.758 ± 0.58 | 0.7616 ± 0.007
323.15 K, 18790 kPa | 780.78 ± 0.6 | 0.7928 ± 0.0072
323.15 K, 23256 kPa | 784.532 ± 0.62 | 0.8153 ± 0.0074
323.15 K, 25042 kPa | 786.147 ± 0.62 | 0.8236 ± 0.0075
323.15 K, 27936 kPa | 788.458 ± 0.64 | 0.8367 ± 0.0076
323.16 K, 626 kPa | 763.659 ± 0.55 | 0.6978 ± 0.0064
323.16 K, 15104 kPa | 777.664 ± 0.59 | 0.7732 ± 0.0071
333.27 K, 16623 kPa | 770.196 ± 0.59 | 0.6592 ± 0.0061
333.28 K, 909 kPa | 754.25 ± 0.54 | 0.5872 ± 0.0055
333.28 K, 1891 kPa | 756.361 ± 0.55 | 0.5916 ± 0.0055
333.28 K, 5093 kPa | 758.805 ± 0.56 | 0.6065 ± 0.0057
333.28 K, 9067 kPa | 762.841 ± 0.57 | 0.6251 ± 0.0058
333.28 K, 12887 kPa | 766.568 ± 0.58 | 0.6421 ± 0.0059
333.28 K, 22108 kPa | 775.145 ± 0.61 | 0.684 ± 0.0063
333.28 K, 25690 kPa | 777.944 ± 0.63 | 0.6985 ± 0.0064
333.28 K, 29272 kPa | 780.933 ± 0.64 | 0.7133 ± 0.0066

CCCCCCCO [heptan-1-ol]
Settings | mass density, 298.15 K [kg/m3] | mass density, 323.15 K [kg/m3] | viscosity, 298.15 K [mPa·s] | viscosity, 323.15 K [mPa·s]
2002 kPa | 819.81 ± 1.5 | – | 5.986 ± 0.093 | –
2006 kPa | – | 802.09 ± 1.5 | – | 2.779 ± 0.044
3999 kPa | 821.2 ± 1.5 | – | 6.11 ± 0.095 | –
4003 kPa | – | 803.5 ± 1.5 | – | 2.832 ± 0.045
6000 kPa | – | 804.98 ± 1.5 | – | 2.887 ± 0.045
6006 kPa | 822.3 ± 1.5 | – | 6.233 ± 0.097 | –
7993 kPa | – | 806.39 ± 1.5 | – | 2.942 ± 0.046
8000 kPa | 823.7 ± 1.5 | – | 6.359 ± 0.099 | –
10000 kPa | – | 807.79 ± 1.5 | – | 3 ± 0.047
10002 kPa | 824.8 ± 1.6 | – | 6.487 ± 0.1 | –
12997 kPa | 826.41 ± 1.6 | – | 6.683 ± 0.1 | –
13006 kPa | – | 809.85 ± 1.5 | – | 3.085 ± 0.049
15999 kPa | 828.31 ± 1.6 | – | 6.883 ± 0.11 | –
16007 kPa | – | 811.88 ± 1.5 | – | 3.173 ± 0.05
18995 kPa | 831.3 ± 1.6 | – | 7.086 ± 0.11 | –
19004 kPa | – | 813.79 ± 1.6 | – | 3.263 ± 0.051
22001 kPa | 833.2 ± 1.6 | – | 7.297 ± 0.11 | –
22008 kPa | – | 815.68 ± 1.6 | – | 3.354 ± 0.053
25000 kPa | 835.1 ± 1.6 | – | 7.511 ± 0.12 | –
25007 kPa | – | 817.57 ± 1.6 | – | 3.446 ± 0.054

CCCCCCC [heptane]
Settings | mass density [kg/m3] | viscosity [mPa·s]
293.25 K, 2103 kPa | 685.58 ± 1.4 | 0.4229 ± 0.0058
293.25 K, 3666 kPa | 687.27 ± 1.4 | 0.4317 ± 0.0059
293.25 K, 6195 kPa | 689.52 ± 1.4 | 0.4449 ± 0.0061
293.25 K, 10385 kPa | 693.22 ± 1.4 | 0.4681 ± 0.0064
293.25 K, 14421 kPa | 696.48 ± 1.4 | 0.4907 ± 0.0067
293.25 K, 17447 kPa | 698.88 ± 1.5 | 0.5062 ± 0.0069
293.25 K, 20472 kPa | 701.01 ± 1.5 | 0.5237 ± 0.0071
293.25 K, 23543 kPa | 703.3 ± 1.5 | 0.5407 ± 0.0073
293.25 K, 26611 kPa | 705.5 ± 1.5 | 0.5567 ± 0.0076
313.07 K, 11204 kPa | 678.28 ± 1.4 | 0.3782 ± 0.0052
313.07 K, 17225 kPa | 683.61 ± 1.4 | 0.4049 ± 0.0056
313.07 K, 20247 kPa | 686.13 ± 1.4 | 0.4185 ± 0.0058
313.07 K, 29805 kPa | 693.98 ± 1.5 | 0.4596 ± 0.0063
313.08 K, 2050 kPa | 669.15 ± 1.4 | 0.3388 ± 0.0047
313.08 K, 4083 kPa | 671.15 ± 1.4 | 0.3472 ± 0.0048
313.08 K, 6733 kPa | 673.77 ± 1.4 | 0.359 ± 0.005
313.08 K, 14195 kPa | 681.03 ± 1.4 | 0.3912 ± 0.0054
313.08 K, 23266 kPa | 688.54 ± 1.5 | 0.4314 ± 0.0059
313.08 K, 26286 kPa | 691.26 ± 1.5 | 0.4449 ± 0.0061
332.77 K, 4091 kPa | 654.57 ± 1.3 | 0.2886 ± 0.0041
332.78 K, 2084 kPa | 652.25 ± 1.3 | 0.2805 ± 0.004
332.78 K, 7031 kPa | 658.26 ± 1.4 | 0.2994 ± 0.0042
332.78 K, 11151 kPa | 662.67 ± 1.4 | 0.3143 ± 0.0044
332.78 K, 14177 kPa | 665.56 ± 1.4 | 0.3261 ± 0.0046
332.78 K, 17172 kPa | 668.79 ± 1.4 | 0.3367 ± 0.0047
332.78 K, 20193 kPa | 671.47 ± 1.4 | 0.3472 ± 0.0048
332.78 K, 23214 kPa | 674.57 ± 1.4 | 0.3581 ± 0.005
332.78 K, 26231 kPa | 677.28 ± 1.4 | 0.3689 ± 0.0051
352.39 K, 2184 kPa | 635.33 ± 1.3 | 0.2346 ± 0.0034
352.39 K, 4102 kPa | 637.96 ± 1.3 | 0.2413 ± 0.0035
352.39 K, 11159 kPa | 646.85 ± 1.4 | 0.2635 ± 0.0038
352.39 K, 14169 kPa | 650.4 ± 1.4 | 0.2732 ± 0.0039
352.39 K, 17199 kPa | 653.84 ± 1.4 | 0.283 ± 0.004
352.39 K, 29758 kPa | 666.6 ± 1.4 | 0.3207 ± 0.0045
352.4 K, 7146 kPa | 641.83 ± 1.3 | 0.2514 ± 0.0036
352.4 K, 20204 kPa | 657.05 ± 1.4 | 0.2922 ± 0.0041
352.4 K, 23212 kPa | 660.04 ± 1.4 | 0.3015 ± 0.0043
352.4 K, 26228 kPa | 663.06 ± 1.4 | 0.3106 ± 0.0044
